# Data taken from patent US20020035124A1, “Insecticidal and miticidal compositions” (priority 1996, published 2002).
# Legend:
# [1] = system: Kanzawa spider mite (Tetranychus kanzawai kishida) which are resistant to chlorfenapyr; experiment: Miticidal effect against female imagines of chlorfenapyr-resistant Kanzawa spider mite (leaf disk spray test); conditions: for LC50: single test compound, female imago, chlorfenapyr-resistant strain, mortality two days after spray treatment, probit analysis
# Protocol: In this experiment, the miticidal effect against female imagines (adults) of Kanzawa spider mite (Tetranychus kanzawai kishida) which are resistant to chlorfenapyr is evaluated.
# Round leaf disks (2 cm diameter) are cut out of a first leaf of kidney bean by a leaf punch and 4 sheets of the disks are placed on wet sanitary cotton in a plastic cup (8 cm diameter). On each leaf disk, 4 female imagines of Kanzawa spider mite (Tetranychus kanzawai kishida) which had acquired a strong resistance to chlorfenapyr are inoculated.
# Each plastic cup is sprayed with 3.5 ml of a test solution with a rotary spray tower (Mizuho Scientific Co., Ltd.) and stored in a constant temperature chamber held at 25±1° C. (32 individuals are tested per concentration, 4-5 concentrations are evaluated per formulation and 2 performances are repeated). […] [formula] […]
# The tested mite was a female image of the chlorfenapyr-resistant strain of Kanzawa spider mite which was obtained by a long artificial selection procedure against chlorfenapyr in a laboratory on a colony of Kanzawa spider mite which had been collected in the field.
# [2] = system: susceptible strain of spider mite; experiment: LC50 against a susceptible strain of spider mite; format: in vivo
SMILES,LC50 [1] [ppm],LC50 [2],resistance to chlorfenapyr of the resistant strain versus susceptible strain ([1]; LC50 resistant strain relative to susceptible strain) [fold]
"CCC(C)c1ccccc1OC(=O)NC (centres unmarked) [BPMC, 2-sec-Butylphenyl-N-methylcarbamate]",3200,,
"CCSCc1ccccc1OC(=O)NC [Ethiofencarb, 2-(Ethylthiomethyl)phenyl methylcarbamate]",2100,,
"CCOCn1c(-c2ccc(Cl)cc2)c(C#N)c(Br)c1C(F)(F)F [Chlorfenapyr, 4-Bromo-2-(4-chlorophenyl)-1-(ethoxymethyl)-5-(trifluoromethyl)pyrrole-3-carbonitrile]",1500,about 5 ppm,~300
